Measurements from patent US9409952B2, “Peptide-compound cyclization method” (Chugai Seiyaku Kabushiki Kaisha, priority 2011, dated 2016).
Read-outs that look alike come from different tables or passages of the source. Starred links: 1 amine or outer side, 2 acyl side, 3 side chain; linkers in the order of their positions; H or OH if unused. Positions of bridges follow the written chain, without caps; N, C: chain ends. Non-standard residues stand in square brackets, D forms with d. Residues, ends and D or L forms follow the SMILES beside them. *: point of attachment. NMePhe(3-Cl) = CN[C@@H](Cc1cccc(Cl)c1)C(=O)O; Met(O2) = CS(=O)(=O)CC[C@H](N)C(=O)O; NMeF = CN[C@@H](Cc1ccccc1)C(=O)O; NMeGABA = CN(CCCC(=O)[*:2])[*:1]; NMeI = CC[C@H](C)[C@H](NC)C(=O)O; NMeβAla = CN(CCC(=O)[*:2])[*:1]; NMeL = CN[C@@H](CC(C)C)C(=O)O; NMeV = CN[C@H](C(=O)O)C(C)C; NMeA = CN[C@@H](C)C(=O)O; Piperidide = C1CCN(*)CC1; dNMeA = CN[C@H](C)C(=O)O; Sar = CNCC(=O)O; tBu = CC(C)(C)*

Tests used:
[1] = PAMPA (parallel artificial membrane permeability assay); type: in vitro ADME; settings: for Papp at 18 hours, 50 µM: PAMPA
How it was run: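 Artificial membrane was 10% (w/v) egg lecithin plus 0.5% (w/v) cholesterol in dodecane on a PVDF filter. A 10 mM DMSO stock was added at 0.5% (v/v) to donor buffer (50 mM MOPSO, pH 6.5, 5.0% glycocholic acid). After 18 h at 37 °C, LC/MS or LC/UV gave donor and acceptor levels for Pe.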

[2] = Metabolic stability in human hepatic microsome; type: in vitro ADME; settings: microsomes
[3] = membrane permeation rate (Pe), 50 mM MOPSO buffer pH 6.5 with 5.0% glycocholic acid, 37° C., 18 hours
[4] = pH 7.4, human hepatic microsome, NADPH(+), read-out: CL NADPH(+)
[5] = membrane permeation rate (Pe), 50 mM MOPSO buffer pH 6.5 with 5.0% glycocholic acid, 37° C., 18 hours, read-out: iPAMPA Pe

CC[C@H](C)[C@@H]1NC(=O)[C@H](CC(C)C)N(C)C(=O)CN(C)C(=O)[C@H]([C@@H](C)O)NC(=O)[C@H](C)N(C)C(=O)C[C@@H](C(=O)N[C@@H](C)C(=O)N2CCCCC2)NC(=O)[C@H](CC(C)C)N(C)C(=O)[C@H](Cc2ccccc2)N(C)C(=O)[C@H](CC(C)C)N(C)C1=O [DP-664] ([NMeA]T[Sar][NMeL]I[NMeL][NMeF][NMeL]DA-Piperidide; lactam N-9)
iPAMPA Pe [1, 3]: 7.0E−05 | microsomal CLint at 1 uM [2, 4]: 304 µL/min/mg

CC(C)C[C@@H]1NC(=O)[C@H](CC(C)C)N(C)C(=O)[C@H](C)N(C)C(=O)[C@@H](C(C)C)NC(=O)C[C@@H](C(=O)N2CCCCC2)NC(=O)[C@H](CCS(C)(=O)=O)NC(=O)[C@H](CC(C)C)N(C)C(=O)[C@H](C)N(C)C(=O)[C@H](CC(C)C)N(C)C(=O)[C@H](Cc2ccccc2)NC(=O)[C@H](Cc2ccccc2)N(C)C1=O [DP-620] ([dV][NMeA][NMeL]L[NMeF]F[NMeL][NMeA][NMeL][Met(O2)]D-Piperidide; lactam N-11)
Papp at 18 hours, 50 µM [1, 5]: 24 ×10⁻⁶ cm/s | microsomal CLint at 1 uM [2, 4]: 26 µL/min/mg

CC(C)C[C@@H]1NC(=O)[C@H](CC(C)C)N(C)C(=O)[C@H](Cc2ccccc2)N(C)C(=O)CNC(=O)[C@H]([C@@H](C)O)NC(=O)[C@H](CC(C)C)N(C)C(=O)[C@H](Cc2ccccc2)NC(=O)[C@@H](C)N(C)C(=O)C[C@@H](C(=O)N2CCCCC2)NC(=O)[C@H](COC(C)(C)C)NC1=O [DP-120] ([dNMeA]F[NMeL]TG[NMeF][NMeL]LS(tBu)D-Piperidide; lactam N-10)
Papp at 18 hours, 50 µM [1, 5]: 50 ×10⁻⁶ cm/s | microsomal CLint at 1 uM [2, 4]: 84 µL/min/mg

CC[C@H](C)[C@@H]1NC(=O)[C@H](CC(C)C)N(C)C(=O)[C@H](Cc2ccccc2)NC(=O)CCN(C)C(=O)C[C@@H](C(=O)N2CCCCC2)NC(=O)[C@H](CC(C)C)NC(=O)[C@H](Cc2ccccc2)NC(=O)[C@H](Cc2ccccc2)N(C)C(=O)[C@H](CC(C)C)NC(=O)[C@H]([C@@H](C)O)NC1=O [DP-334] ([NMeβAla]F[NMeL]ITL[NMeF]FLD-Piperidide; lactam N-10)
Papp at 18 hours, 50 µM [1, 5]: 20 ×10⁻⁶ cm/s | microsomal CLint at 1 uM [2, 4]: 80 µL/min/mg

CC(C)C[C@H]1C(=O)N[C@H](C(=O)N(C)[C@@H](Cc2ccccc2)C(=O)N(C)[C@@H](Cc2ccccc2)C(=O)N[C@@H](C)C(=O)N2CCCCC2)CC(=O)N(C)CCC(=O)N[C@@H](C)C(=O)N(C)[C@@H](Cc2ccccc2)C(=O)N(C)[C@@H](C(C)C)C(=O)NCC(=O)N[C@@H]([C@@H](C)O)C(=O)N(C)[C@@H](C)C(=O)N[C@@H](C(C)C)C(=O)N1C [DP-391] ([NMeβAla]A[NMeF][NMeV]GT[NMeA]V[NMeL]D[NMeF][NMeF]A-Piperidide; lactam N-10)
Papp at 18 hours, 50 µM [1, 5]: 4.5 ×10⁻⁶ cm/s | microsomal CLint at 1 uM [2, 4]: 14 µL/min/mg

CC[C@H](C)[C@@H]1NC(=O)[C@H](Cc2ccccc2)N(C)C(=O)[C@@H]2CCCN2C(=O)[C@H]([C@@H](C)O)NC(=O)[C@H](CC(C)C)NC(=O)[C@H](C)N(C)C(=O)CCCN(C)C(=O)C[C@@H](C(=O)N2CCCCC2)NC(=O)[C@H](CC(C)C)NC(=O)[C@H](CC(C)C)N(C)C(=O)CNC(=O)[C@H](Cc2ccccc2)N(C)C1=O [DP-109] ([NMeGABA][NMeA]LTP[NMeF]I[NMeF]G[NMeL]LD-Piperidide; lactam N-12)
Papp at 18 hours, 50 µM [1, 5]: 30 ×10⁻⁶ cm/s | microsomal CLint at 1 uM [2, 4]: 36 µL/min/mg

CC(C)C[C@@H]1NC(=O)[C@H](CC(C)C)N(C)C(=O)[C@H](C)NC(=O)[C@H](C(C)C)N(C)C(=O)CN(C)C(=O)[C@H](Cc2ccccc2)NC(=O)[C@H]([C@@H](C)O)NC(=O)[C@H](CC(C)C)N(C)C(=O)[C@@H](C)N(C)C(=O)C[C@@H](C(=O)N2CCCCC2)NC(=O)[C@H](CC(C)C)N(C)C1=O [DP-418] ([dNMeA][NMeL]TF[Sar][NMeV]A[NMeL]L[NMeL]D-Piperidide; lactam N-11)
Papp at 18 hours, 50 µM [1, 5]: 28 ×10⁻⁶ cm/s | microsomal CLint at 1 uM [2, 4]: 71 µL/min/mg

CC[C@H](C)[C@@H]1NC(=O)[C@H](CC(C)C)N(C)C(=O)[C@H](C(C)C)NC(=O)[C@H](CC(C)C)NC(=O)[C@H](CC(C)C)NC(=O)[C@H]([C@@H](C)O)NC(=O)[C@H](Cc2ccccc2)NC(=O)[C@H](CC(C)C)NC(=O)[C@H](C(C)C)N(C)C(=O)CCN(C)C(=O)C[C@@H](C(=O)N2CCCCC2)NC1=O [DP-412] ([NMeβAla][NMeV]LFTLLV[NMeL]ID-Piperidide; lactam N-11)
Papp at 18 hours, 50 µM [1, 5]: 26 ×10⁻⁶ cm/s | microsomal CLint at 1 uM [2, 4]: 122 µL/min/mg

CC[C@H](C)[C@H](NC(=O)[C@H](CC(C)C)NC(=O)[C@H](CC(C)C)N(C)C(=O)[C@H](Cc1cccc(Cl)c1)N(C)C(=O)[C@@H](NC(=O)[C@@H]1CC(=O)N[C@@H](Cc2ccccc2)C(=O)N[C@@H]([C@@H](C)O)C(=O)N[C@@H](CC(C)C)C(=O)N(C)[C@@H](CC(C)C)C(=O)N(C)[C@@H](C)C(=O)N(C)[C@@H](CC(C)C)C(=O)N1)[C@@H](C)CC)C(=O)N1CCCCC1 [DP-914] (FTL[NMeL][NMeA][NMeL]DI[NMePhe(3-Cl)][NMeL]LI-Piperidide; lactam N-7)
iPAMPA Pe [1, 3]: 1.0E−07 | microsomal CLint at 1 uM [2, 4]: 29 µL/min/mg

CC[C@H](C)[C@@H]1NC(=O)[C@H](C)N(C)C(=O)[C@H](CC(C)C)N(C)C(=O)[C@H](Cc2ccccc2)NC(=O)[C@H](CC(C)C)N(C)C(=O)[C@H](CC(C)C)N(C)C(=O)[C@H](C)N(C)C(=O)[C@H](Cc2ccccc2)N(C)C(=O)[C@@H](C)N(C)C(=O)C[C@@H](C(=O)N[C@H](C(=O)N2CCCCC2)[C@@H](C)CC)NC(=O)[C@H](CC(C)C)N(C)C(=O)[C@H]([C@@H](C)O)NC(=O)[C@H](COC(C)(C)C)NC1=O [DP-963] ([dNMeA][NMeF][NMeA][NMeL][NMeL]F[NMeL][NMeA]IS(tBu)T[NMeL]DI-Piperidide; lactam N-13)
Papp at 18 hours, 50 µM [1, 5]: 0.1 ×10⁻⁶ cm/s | microsomal CLint at 1 uM [2, 4]: 18 µL/min/mg

CC(C)C[C@H]1C(=O)N[C@@H]([C@@H](C)O)C(=O)N(C)[C@@H](Cc2ccccc2)C(=O)N(C)[C@@H](CC(C)C)C(=O)NCC(=O)N(C)[C@@H](C(C)C)C(=O)N[C@@H](Cc2ccccc2)C(=O)N[C@H](C(=O)N(C)[C@@H](Cc2ccccc2)C(=O)N(C)[C@@H](Cc2ccccc2)C(=O)N[C@@H](C)C(=O)N2CCCCC2)CC(=O)N[C@H](C(C)C)C(=O)N[C@@H](C(C)C)C(=O)N1C [DP-205] ([dV]V[NMeL]T[NMeF][NMeL]G[NMeV]FD[NMeF][NMeF]A-Piperidide; lactam N-10)
Papp at 18 hours, 50 µM [1, 5]: 0.12 ×10⁻⁶ cm/s | microsomal CLint at 1 uM [2, 4]: 29 µL/min/mg

CC[C@H](C)[C@H]1C(=O)N[C@H](C(=O)N2CCCCC2)CC(=O)N[C@H](C)C(=O)N[C@@H]([C@@H](C)O)C(=O)N(C)[C@@H](Cc2ccccc2)C(=O)N[C@@H](CC(C)C)C(=O)N(C)[C@@H](C)C(=O)N[C@@H](C(C)C)C(=O)N[C@@H](Cc2ccccc2)C(=O)N(C)[C@@H](CC(C)C)C(=O)N[C@@H](CC(C)C)C(=O)NCC(=O)N1C [DP-53] ([dA]T[NMeF]L[NMeA]VF[NMeL]LG[NMeI]D-Piperidide; lactam N-12)
Papp at 18 hours, 50 µM ([1]; pH 6.5): 30 ×10⁻⁶ cm/s | microsomal CLint at 1 uM ([2]; human, pH 7.4, CL NADPH(+)): 60 µL/min/mg

CC(C)C[C@H]1C(=O)N[C@H](C(=O)N2CCCCC2)CC(=O)N(C)CCC(=O)N[C@@H]([C@@H](C)O)C(=O)N(C)[C@@H](C)C(=O)N[C@@H](COC(C)(C)C)C(=O)N(C)[C@@H](Cc2ccccc2)C(=O)N(C)[C@@H](CC(C)C)C(=O)N1C [DP-704] ([NMeβAla]T[NMeA]S(tBu)[NMeF][NMeL][NMeL]D-Piperidide; lactam N-8)
Papp at 18 hours, 50 µM [1, 5]: 29 ×10⁻⁶ cm/s | microsomal CLint at 1 uM [2, 4]: 83 µL/min/mg
